From patent US11701345B2, “Car activator agents for cyclophosphamide-based treatments of cancer” (UNIVERSITY OF MARYLAND, BALTIMORE, priority 2017, dated 2023) come the findings set out here.

Molecules are shown by their SMILES. “Also recorded” adds a separate entry of the source.

For one series, the system named is CYP2B6. The series is described as follows: Induction of CYP2B6 vs CYP3A4 mRNA (RT-PCR) and protein (Western blot) in human primary hepatocytes. The class given is cell-based. As to conditions: for hCAR activation with preferred expression of CYP2B6 protein: FIGS. 3B-3D. The procedure:
HPHs were obtained from Bioreclamation, IVT. Hepatocytes with viability over 90% were seeded at 1.5×10^6 or 7.5×10^5 cells per well in 6- or 12-well collagen-coated plates. After 4 hours of attachment, cells were overlaid with Matrigel (0.25 mg/mL) in serum-free Williams E medium to form the sandwich culture. Following incubation for 36 hours, HPH were treated with DMSO (0.1%) or hCAR activator (i.e. CITCO or DL 5016) (1 mmol/L) for 24 or 72 hours for mRNA and protein detection, respectively. In separate experiments, wild-type (WT) and CAR-knockout (KO) HepaRG cells obtained from Sigma-Aldrich were cultured in 6- or 12-well collagen-coated plates. Cells were further treated with DMSO or hCAR activator.
Total RNA from HPH and lymphoma cells was isolated with TRizol Reagent (Life Technologies) and reverse transcribed using a High Capacity cDNA Archive kit (Applied Biosystems) following the manufacturers' instructions. mRNA expression of CYP2B6, CYP3A4, was normalized against that of GAPDH. Real-time PCR assays were performed in 96-well optical plates on a StepOnePlus Real-Time PCR System with SYBR Green PCR Master Mix (Applied Biosystems). The primer sequences used for real-time PCR analyses included: CYP2B6: 50-[…]-30 and 50-CCTTCACCAAGACAAATC-CGC-30; CYP3A4: 50-[…]-30 and 50[…]-30. Fold induction of genes over control was determined as 2DDCt, where DCt is representative of the cycle threshold number difference between the target gene and GAPDH and DDCt represents the relative change in the intergroup variations.
(§1) Homogenate proteins from treated HPH, H9c2 or HepaRG cells were resolved on NuPAGE Novex Bis-Tris 4% to 12% gels (Life Technologies) and electrophoretically transferred onto immobilon-P polyvinylidene difluoride membranes. Membranes were incubated with specific antibodies against human CAR (Perseus Proteomics), cleaved caspase-3 (Cell Signaling Technology), or g-H2AX (Millipore), diluted 1:1,000, 1:1,000, and 1:400, respectively. b-Actin was used to normalize protein loading. Following incubation with horseradish peroxidase goat antimouse or anti-rabbit IgG antibody, membranes were developed using SuperSignal West Pico Chemiluminescent Substrate (Thermo Scientific). Western blot signals were quantified by densitometry using ImageJ software from the National Institutes of Health.
The human primary hepatocytes from human donor were treated with vehicle control (0.1% DMSO) or DL5016 at a concentration ranging from 0.1 μM to 1 μM for 24 h and 72 h. The expression mRNA for CYP2B6 and CYP3A4 and CYP2B6 and CYP3A4 protein were analyzed at the time point of 24 h and 72 h respectively.

The target of a further series is T1, hCAR (Homo sapiens, UniProt Q14994, INS274A).
T1 construct: expressed in transfected cells; host or cells: HepG2
T1 sequence (Q14994 with tags, fused parts or gaps isoform Q14994-2 INS270A): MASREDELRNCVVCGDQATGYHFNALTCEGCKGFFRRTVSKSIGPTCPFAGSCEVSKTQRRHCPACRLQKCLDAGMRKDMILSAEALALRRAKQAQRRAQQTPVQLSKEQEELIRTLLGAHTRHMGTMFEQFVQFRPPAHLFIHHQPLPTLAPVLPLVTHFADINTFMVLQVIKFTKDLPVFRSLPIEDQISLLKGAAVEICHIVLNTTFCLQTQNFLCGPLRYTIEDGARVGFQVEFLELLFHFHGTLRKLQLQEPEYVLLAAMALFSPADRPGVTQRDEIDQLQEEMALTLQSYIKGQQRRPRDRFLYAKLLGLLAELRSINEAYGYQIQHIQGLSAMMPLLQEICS
T1 sequence (P19793 1-462 partner): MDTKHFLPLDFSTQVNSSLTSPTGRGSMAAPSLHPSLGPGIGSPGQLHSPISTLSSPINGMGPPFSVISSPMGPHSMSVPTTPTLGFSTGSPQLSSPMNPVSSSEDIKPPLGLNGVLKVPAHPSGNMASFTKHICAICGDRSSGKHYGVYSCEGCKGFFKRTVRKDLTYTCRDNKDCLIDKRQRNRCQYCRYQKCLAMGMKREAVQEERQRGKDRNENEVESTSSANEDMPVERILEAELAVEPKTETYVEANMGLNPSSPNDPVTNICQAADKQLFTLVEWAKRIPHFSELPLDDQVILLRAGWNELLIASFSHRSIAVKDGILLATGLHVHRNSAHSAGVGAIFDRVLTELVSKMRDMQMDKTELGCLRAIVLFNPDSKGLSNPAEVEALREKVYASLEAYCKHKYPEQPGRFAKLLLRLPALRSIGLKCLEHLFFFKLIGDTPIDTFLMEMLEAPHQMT
Description: hCAR-mediated CYP2B6 luciferase reporter gene activation in transfected HepG2 cells. The class given is cell-based. To be noted: for activation of hCAR: concentrations under 1 μm, FIGS. 3E-3J. The procedure:
(§2) Using CITCO as a model compound, the biological activity of CITCO has been evaluated for its selective activation of hCAR vs. hPXR in luciferase reporter assays, and its effects on CYP2B6 expression at both mRNA and protein levels in cultured human primary hepatocytes (See FIGS. 5A-B).
HepG2 cells were transfected with hCAR1+A expression plasmid and CYP2B6-2.2k firely luciferase reporter construct. Transfected cells were treated with vehicle control (0.1% DMSO), CITCO and DL5016 at indicated concentrations for 24 h, CYP2B6 reported activities were normalized as folds over vehicle control and are expressed as means±SD (n=3). * p<0.05; ***, p<0.001. The results for the effects of DL 5016 compared with CITCO on hCAR-mediated CYP2B6 reported gene activation are shown in FIG. 2.
In general terms: A reporter such as luciferase makes a cellular process visible.

A further series has as its target T2, hPXR (Homo sapiens, UniProt O75469).
T2 sequence (O75469 1-434): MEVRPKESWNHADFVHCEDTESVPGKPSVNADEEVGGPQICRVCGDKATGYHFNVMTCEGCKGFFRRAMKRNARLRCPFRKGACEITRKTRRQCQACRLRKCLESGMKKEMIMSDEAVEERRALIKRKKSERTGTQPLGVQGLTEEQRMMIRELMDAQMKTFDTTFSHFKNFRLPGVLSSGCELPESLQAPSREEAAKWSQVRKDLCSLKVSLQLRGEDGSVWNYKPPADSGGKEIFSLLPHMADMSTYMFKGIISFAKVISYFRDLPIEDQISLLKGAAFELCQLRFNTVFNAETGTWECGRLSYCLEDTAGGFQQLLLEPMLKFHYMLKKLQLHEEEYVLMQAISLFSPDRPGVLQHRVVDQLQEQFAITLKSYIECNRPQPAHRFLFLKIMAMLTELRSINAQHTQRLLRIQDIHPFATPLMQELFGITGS
Description: hPXR luciferase reporter assay. The series is classed as cell-based. As to conditions: concentrations under 1 μm; FIGS. 3E-3J.
Source text: as §2

Another series deals with SU-DHL-4 cells. The series is described as follows: Hepatocyte/lymphoma co-culture with CHOP: cancer cell death, viability, caspase-3. The series is classed as cell-based, human. To be noted: hepatocyte/lymphoma co-culture, added to CHOP, FIGS. 10B-C. The procedure: HPH were cultured in collagen-coated 12-well plates and pretreated with vehicle control (0.1% DMSO) or hCAR activator (1 mmol/L) for 24 hours. The wells were then separated with […] polycarbonate membrane inserts (Sigma-Aldrich). A total of 0.5×10^6 SU-DHL-4 cells suspended in supplemented Williams' Medium E were transferred into the insert chamber with a final volume of 2 mL/well. In separate coculture experiments, HPH were replaced with either WT or CAR-KO HepaRG cells. The cocultures were exposed to designated concentrations of the chemotherapy drugs in CHOP in the presence or absence of hCAR activator for various time intervals, as indicated.
as §1
HPHs and H9c2 rat cardiomyocytes were seeded at 7.5×10^4 cells per well in 96-well plates. HPH were cultured for 24 hours before treatment with hCAR activator (1 mmol/L) or vehicle control (0.1% DMSO), followed by treatment with the chemotherapy drugs included in CHOP at a range of concentrations. Culture medium containing CHOP drugs and metabolites was exchanged between the cell types at pre-determined time points. A typical 3-[4,5-dimethylthiazol-2-yl]-2,5 diphenyl tetrazolium bromide (MTT) assay was carried out as described previously (21). Cell viability was expressed as the percentage of vehicle control (0.1% DMSO). Cocultured cells were assembled and treated as described above. The viability of the SU-DHL-4 cells was determined at selected time points with a Cellometer Auto T4 (Nexcelom Biosciences) using trypan blue exclusion.

A short description of the next series: Aqueous solubility. The class given is physicochemical.

For `FC(F)(F)c1ccc(CCNCc2c(-c3ccc(Cl)cc3)nc3sccn23)cc1Cl` [DL4103, 2-(3-chloro-4-(trifluoromethyl)phenyl)-N-((6-(4-chlorophenyl)imidazo[2,1-b]thiazol-5-yl)methyl)ethan-1-amine], the “hCAR activation with preferred expression of CYP2B6 protein” value (from here on “hCAR activation”) in the series with CYP2B6 is given as “activate hCAR resulted preferred expression of CYP2B6 protein”.
In the case of `Clc1ccc(-c2nc3sccn3c2/C=N/CCc2ccc(Cl)c(Cl)c2)cc1` [DL4059, (E)-1-(6-(4-chlorophenyl)imidazo[2,1-b]thiazol-5-yl)-N-(3,4-dichlorophenethyl)methanimine], in the series with CYP2B6, the “hCAR activation” value is “activate hCAR resulted preferred expression of CYP2B6 protein”. Moreover, on hCAR, the “activation of hCAR” value was “low activity”. The “activation of hPXR” value at hPXR is on record as “low activity”.
Consider `Clc1ccc(CCNCc2c(-c3ccc(Cl)cc3)nc3sccn23)cc1` [DL4095, 2-(4-chlorophenyl)-N-((6-(4-chlorophenyl)imidazo[2,1-b]thiazol-5-yl)methyl)ethan-1-amine], for which the “hCAR activation” value in the series with CYP2B6 was “activate hCAR resulted preferred expression of CYP2B6 protein”.
As to `c1ccc2c(c1)CC(NCc1c(-c3ccc4ccccc4c3)nc3occn13)C2` [DL5016, N-((6-(naphthalen-2-yl)imidazo[2,1-b]oxazol-5-yl)methyl)-2,3-dihydro-1H-inden-2-amine], the “induction of CYP2B6 over CYP3A4 at mRNA and protein levels” value with CYP2B6 (human primary hepatocytes, 0.1-1 μM, 24 h (mRNA) and 72 h (protein), FIG. 3A) was “potent and selective induction of CYP2B6 over CYP3A4”. Moreover, the “hCAR activity (CYP2B6 reporter gene activation) compared with CITCO” value at hCAR (HepG2 cells, hCAR1+A plasmid, CYP2B6-2.2k luciferase reporter, 24 h, FIG. 2) is given as “higher hCAR-inducing activity than CITCO; also recorded: more effective than CITCO”. Further, the “effect on CHOP anticancer activity (cancer cell death)” value in the series on SU-DHL-4 cells was “potentiates the beneficial effects of CHOP in causing cancer cell death; also recorded: clearly enhanced the regimen's anticancer activity”; in the series with SU-DHL-4 cells (listed as DL 5016), “potentiate the beneficial effects of CHOP in causing cancer cell death”. Further, the “aqueous solubility compared with CITCO” value in “Aqueous solubility” is listed as “improved aqueous solubility”.
With `Clc1ccc(-c2nc3sccn3c2CNCCc2ccc(Cl)c(Cl)c2)cc1` [DL4097, N-((6-(4-chlorophenyl)imidazo[2,1-b]thiazol-5-yl)methyl)-2-(3,4-dichlorophenyl)ethan-1-amine], in the series on CYP2B6, the “hCAR activation” value is given as “activate hCAR resulted preferred expression of CYP2B6 protein”.
Regarding `Clc1ccc(-c2nc3sccn3c2CNCCc2ccc(Cl)c(Br)c2)cc1` [DL 4102, 2-(3-bromo-4-chlorophenyl)-N-((6-(4-chlorophenyl)imidazo[2,1-b]thiazol-5-yl)methyl)ethan-1-amine], in the series on CYP2B6, the “hCAR activation” value is given as “activate hCAR resulted preferred expression of CYP2B6 protein”.
Consider `Clc1ccc(-c2nc3sccn3c2CNCCc2cccc(Cl)c2)cc1` [DL4094, 2-(3-chlorophenyl)-N-((6-(4-chlorophenyl)imidazo[2,1-b]thiazol-5-yl)methyl)ethan-1-amine], for which the “hCAR activation” value in the series on CYP2B6 is “activate hCAR resulted preferred expression of CYP2B6 protein”.
For `Clc1ccc(-c2nc3sccn3c2CNCCc2ccc(Br)cc2)cc1` [DL 4100, 2-(4-bromophenyl)-N-((6-(4-chlorophenyl)imidazo[2,1-b]thiazol-5-yl)methyl)ethan-1-amine], the “hCAR activation” value with CYP2B6 is on record as “activate hCAR resulted preferred expression of CYP2B6 protein”.
Turning to `Clc1ccc(-c2nc3sccn3c2CNCCc2cccc(Br)c2)cc1` [DL4104, 2-(3-bromophenyl)-N-((6-(4-chlorophenyl)imidazo[2,1-b]thiazol-5-yl)methyl)ethan-1-amine], in the series on CYP2B6, the “hCAR activation” value is given as “activate hCAR resulted preferred expression of CYP2B6 protein”.
For `Cl.Clc1ccc(-c2nc3sccn3c2CNCCc2ccc(Cl)c(Cl)c2)cc1` [DL4072, N-((6-(4-chlorophenyl)imidazo[2,1-b]thiazol-5-yl)methyl)-2-(3,4-dichlorophenyl)ethan-l-amine hydrochloride], the “hCAR activation” value with CYP2B6 is listed as “activate hCAR resulted preferred expression of CYP2B6 protein”. Further, the “activation of hCAR” value at hCAR is reported as “activated hCAR”. For the same compound, the “activation of hPXR” value at hPXR is given as “not hPXR”.
